From US20250263370A1 (Tay Therapeutics Limited, priority 2022, published 2025) come the findings set out here.

The target of series [1] is BRD4 BD1 (Homo sapiens (Human), UniProt O60885). The series can be described thus: NanoBRET bromodomain assay, NanoLuc-BRD4-BD1 fusion in HEK293 cells. The format is cell-based. The settings on record: top concentration 10 μM. On the technique in general: In BRET a luciferase serves as donor, and the signal depends on an acceptor being close.
Procedure: HEK293 cells were transfected using NanoLuc-BRD4-BD1 or NanoLuc-BRD4-BD2 fusion vectors and incubated at 37° C. in an atmosphere of 5% CO2 for 20-24 hours. The transfected cells were then dispensed into 96-well plates using 90 μl cell suspension per well containing 2×10^5 cells/mL in Opti-MEM and 1× final concentration of tracer. 90 μL per well of cell suspension without tracer was also dispensed into at least 3 wells as “No tracer control samples” for background correction. Serially diluted test compounds were prepared at 1000× concentration in DMSO and further diluted to 10× concentration in Opti-MEM. […] Plates were then incubated at 37° C. +5% 002 incubator for 2 hours. […] Donor emission (450 nm) and acceptor emission (610 nm) were measured using PHERAstar (BMG LabTech). For data analysis, the raw BRET ratio was generated and converted to milliBRET units with background correction using the formula: [(Acceptorsample/Donorsample−(Acceptorno tracer control/Donorno tracer control)]×1000. The mBU data was plotted as a function of compound concentration and IC50s for BRET assay were determined by nonlinear regression analysis of concentration response curves using the Collaborative Drug Discovery Vault software. The fold-selectivity was calculated by dividing the IC50 for BRD4 BD1 by the IC50 for BRD4 BD2.
Series [2] is described as follows: Plasma stability assay, rat plasma. The format is in vitro ADME. The settings on record: Method 1 (5 μM). The gist of the method:
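Compound at 5 μM final (0.5% DMSO) in one protocol or 10 μM (2% DMSO) in the other, incubated in plasma at 37° C.; samples taken 0–120 min and quenched with cold acetonitrile plus internal standard. LC-MS/MS gives percent remaining relative to the 0-min sample.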

Series [3] is described as follows: Intrinsic clearance in liver microsomes, rat. The note with it: rat, liver microsomes, pH 7.4, rat liver microsomes, Method 1; read-out: Half-Life (T1/2) (min), Rat. The series is classed as in vitro ADME. An outline of the steps: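 Compound at 1 μM (0.1–1% DMSO) incubated at 37 °C with mouse or rat liver microsomes (0.5 mg/mL protein) and 1 mM NADPH in PBS pH 7.4; samples taken up to 60 min and quenched in cold acetonitrile. LC-MS/MS of percent remaining gave half-life and CLint; no-NADPH controls run.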
Background: Microsomes from liver hold many membrane-bound enzymes, among them those of drug oxidation.

The nature of series [4]: Intrinsic clearance in liver microsomes, mouse. The series is classed as in vitro ADME. The settings on record: pH 7.4, Method 1, read-out: Half-Life (T1/2) (min), Mouse. Here is the method: From stock solution of compound on 10 mM DMSO, a working solution of 0.1 mM is prepared by diluting the compound in DMSO. 6.25 μL of a 20 mg/mL solution of microsomes in PBS pH 7.4 buffer is added to 216.25 μL PBS pH 7.4 buffer (final microsome concentration—0.5 mg/mL). 25 μL of 10 mM solution of NADPH in PBS pH 7.4 buffer is added to the incubations (final NADPH concentration—1 mM). The mixture is pre-warmed to 37° C. for 10 minutes. 2.5 μL of test compound working solution is added (final compound concentration—1 μM with 1% DMSO). Aliquots of 30 μL are taken from the reaction solution at 0.5, 5, 15, 30 and 60 minutes. The reaction was stopped by the addition of 5 volumes of cold acetonitrile with IS (100 nM alprazolam, 200 nM caffeine and 100 nM tolbutamide). Samples were centrifuged at 3, 220 g for 40 minutes. Aliquots of 100 μL of the supernatant are mixed with 100 μL of ultra-pure H2O and used for LC-MS/MS analysis. The percent compound remaining at each time point is calculated with respect to that of the 0.5 min sample. The data are analysed to calculate half-life. Control experiments are run without NADPH and blank samples are prepared using DMSO without the test compound.
A 50 mM stock solution (in DMSO) is prepared for the compound. From the stock solution, a working solution of 0.5 mM is prepared by diluting the compound in DMSO. This concentration of working solution is prepared considering a final concentration of 1 uM with 0.1% DMSO. The compound (1 μL of working solution) is spiked in PBS with pH 7.4 ([…]) at a concentration of 1 μM. Subsequently, 110 μL of 10 mM NADPH is added (as a co-factor). The sample is incubated at 37° C. for 15 min. Following this, pre-warmed liver microsomes (27.5 μL; final protein conc. 0.5 mg/mL) are added. The samples are then incubated at 37° C. Aliquots of samples are withdrawn at 0, 5, 15, 30, 45 and 60 min. The reaction is stopped by using chilled acetonitrile containing internal standard. The samples are centrifuged, and the supernatants analysed by LC-MS/MS. The percent compound remaining at each time point is calculated with respect to that of the 0 min sample. The data are then analysed to calculate half-life and intrinsic clearance (CLint). Control experiments are run without NADPH and blank samples are prepared using DMSO without the test compound.

Series [5] addresses BD 2 (Homo sapiens, UniProt O60885). The series can be described thus: Free EC50 for BD 2, compared with plasma concentration.

Some results are limits rather than exact numbers.

Consider `CNC(=O)c1[nH]c(C(=O)NC2CCC2)cc1O[C@@H](C)c1ccccc1` (stereo in doubt) [Example 101, N^5-cyclobutyl-N^2-methyl-3-(1-phenylethoxy)-1H-pyrrole-2,5-dicarboxamide], for which the IC50 – broadly, the concentration that gives 50% inhibition – in series [1] was at least 10000 nM. In addition, the “Plasma Stability (% remaining at 120 minutes), Rat” value in series [2] worked out at 61%. The values for the half-life at 1 μM in series [3] and in series [4] were 58 min and 27 min, respectively. In addition, it took 606 nM to reach a half-maximal effect in series [5] (EC50).
